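How tested: cells in 96-well plates exposed to compound for 48 hours at five concentrations. GI50 is the concentration that inhibits growth by half.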 Active and inactive are the calls of the source. Cut-off read from the data, not from the text of the source: active = GI50 up to about 1.1 µM and inactive = higher.
Key:
Assay in all cases: growth of human tumour cells (NCI), 48 h
[1] = test system: 786-0
[2] = test system: A498
[3] = test system: A549
[4] = test system: ACHN
[5] = test system: BT-549
[6] = test system: CAKI-1
[7] = test system: COLO 205
[8] = test system: DU-145
[9] = test system: EKVX
[10] = test system: HCT-116
[11] = test system: HCT-15
[12] = test system: HL-60
[13] = test system: HOP-62
[14] = test system: HOP-92
[15] = test system: HT-29
[16] = test system: Hs-578T
[17] = test system: IGROV-1
[18] = test system: K562
[19] = test system: KM12
[20] = test system: LOX IMVI
[21] = test system: M14
[22] = test system: MCF7
[23] = test system: MDA-MB-231
[24] = test system: MDA-N
[25] = test system: MOLT-4
[26] = test system: Malme-3M
[27] = test system: NCI-H226
[28] = test system: NCI-H23
[29] = test system: NCI-H460
[30] = test system: NCI-H522
[31] = test system: NCI/ADR-RES
[32] = test system: OVCAR-3
[33] = test system: OVCAR-4
[34] = test system: OVCAR-5
[35] = test system: OVCAR-8
[36] = test system: PC-3
[37] = test system: RPMI-8226
[38] = test system: RXF 393
[39] = test system: SF-268
[40] = test system: SF-295
[41] = test system: SF-539
[42] = test system: SK-MEL-28
[43] = test system: SK-MEL-2
[44] = test system: SK-MEL-5
[45] = test system: SK-OV-3
[46] = test system: SN12C
[47] = test system: SNB-19
[48] = test system: SR
[49] = test system: SW-620
[50] = test system: T47D
[51] = test system: TK-10
[52] = test system: U-251
[53] = test system: UACC-257
[54] = test system: UACC-62
[55] = test system: UO-31
[56] = test system: CCRF-CEM
[57] = test system: MDA-MB-435
[58] = test system: SNB-75

In the case of `NC(C(=O)O)C(N)C(=O)O` (stereo not drawn), the GI50 [1] is reported as > 100 µM (inactive), the GI50 [2] is reported as > 100 µM (inactive) and the GI50 [3] is reported as > 100 µM (inactive). The GI50 [4] was > 100 µM (inactive), the GI50 [5] was > 100 µM (inactive) and the GI50 [6] was > 100 µM (inactive). For the same molecule, the GI50 [7] was > 100 µM (inactive), the GI50 [8] was > 100 µM (inactive) and the GI50 [9] was > 100 µM (inactive). The GI50 [10] was > 100 µM (inactive), the GI50 [11] was > 100 µM and the GI50 [12] was > 100 µM (inactive). The GI50 [13] was > 100 µM (inactive), the GI50 [14] was > 100 µM (inactive) and the GI50 [15] was > 100 µM (inactive). For the same molecule, the GI50 [16] was > 100 µM (inactive), the GI50 [17] was > 100 µM (inactive) and the GI50 [18] was > 100 µM (inactive). The GI50 [19] was > 100 µM (inactive), the GI50 [20] was > 100 µM (inactive) and the GI50 [21] was > 100 µM (inactive). For the same molecule, the GI50 [22] was > 100 µM (inactive), the GI50 [23] was > 100 µM (inactive) and the GI50 [24] was > 100 µM (inactive). The GI50 [25] was > 100 µM (inactive), the GI50 [26] was > 100 µM (inactive) and the GI50 [27] was > 100 µM (inactive). For the same molecule, the GI50 [28] was > 100 µM (inactive), the GI50 [29] was > 100 µM (inactive) and the GI50 [30] was > 100 µM (inactive). The GI50 [31] was > 100 µM (inactive), the GI50 [32] was > 100 µM (inactive) and the GI50 [33] was > 100 µM (inactive). The GI50 [34] was > 100 µM (inactive), the GI50 [35] was > 100 µM (inactive) and the GI50 [36] was > 100 µM (inactive). The GI50 [37] was > 100 µM (inactive), the GI50 [38] was > 100 µM (inactive) and the GI50 [39] was > 100 µM (inactive). For the same molecule, the GI50 [40] was > 100 µM (inactive), the GI50 [41] was > 100 µM (inactive) and the GI50 [42] was > 100 µM (inactive). For the same molecule, the GI50 [43] was > 100 µM (inactive), the GI50 [44] was > 100 µM (inactive) and the GI50 [45] was > 100 µM (inactive). For the same molecule, the GI50 [46] was > 100 µM (inactive), the GI50 [47] was > 100 µM (inactive) and the GI50 [48] was > 100 µM (inactive). The GI50 [49] was > 100 µM (inactive), the GI50 [50] was > 100 µM (inactive) and the GI50 [51] was > 100 µM (inactive). The GI50 [52] was > 100 µM (inactive), the GI50 [53] was > 100 µM (inactive) and the GI50 [54] was > 100 µM (inactive). For the same molecule, the GI50 [55] was > 100 µM (inactive).

For `COc1cc([N+](=O)[O-])c(S(=O)(=O)O)cc1-n1nc(C(=O)Nc2ccccc2)n[n+]1-c1cc(S(=O)(=O)[O-])c([N+](=O)[O-])cc1OC`, the GI50 [1] was > 100 µM (inactive), the GI50 [3] was > 100 µM (inactive) and the GI50 [4] was 93.8 µM (inactive). For the same molecule, the GI50 [5] was > 100 µM (inactive), the GI50 [6] was > 100 µM (inactive) and the GI50 [56] was > 100 µM (inactive). The GI50 [7] was > 100 µM (inactive), the GI50 [8] was > 100 µM (inactive) and the GI50 [9] was > 100 µM (inactive). For the same molecule, the GI50 [10] was > 100 µM (inactive), the GI50 [11] was 45.4 µM and the GI50 [12] was > 100 µM (inactive). The GI50 [13] was > 100 µM (inactive), the GI50 [14] was > 100 µM (inactive) and the GI50 [15] was 56 µM (inactive). The GI50 [16] was > 100 µM (inactive), the GI50 [17] was > 100 µM (inactive) and the GI50 [18] was 88.7 µM (inactive). For the same molecule, the GI50 [19] was > 100 µM (inactive), the GI50 [20] was 9.84 µM (inactive) and the GI50 [21] was > 100 µM (inactive). The GI50 [22] was > 100 µM (inactive), the GI50 [57] was 85.5 µM (inactive) and the GI50 [24] was > 100 µM (inactive). The GI50 [25] was > 100 µM (inactive), the GI50 [26] was > 100 µM (inactive) and the GI50 [27] was > 100 µM (inactive). For the same molecule, the GI50 [28] was > 100 µM (inactive), the GI50 [29] was > 100 µM (inactive) and the GI50 [30] was > 100 µM (inactive). The GI50 [31] was > 100 µM (inactive), the GI50 [32] was > 100 µM (inactive) and the GI50 [33] was > 100 µM (inactive). The GI50 [34] was > 100 µM (inactive), the GI50 [35] was > 100 µM (inactive) and the GI50 [36] was > 100 µM (inactive). For the same molecule, the GI50 [37] was > 100 µM (inactive), the GI50 [39] was > 100 µM (inactive) and the GI50 [40] was > 100 µM (inactive). The GI50 [42] was > 100 µM (inactive), the GI50 [43] was > 100 µM (inactive) and the GI50 [44] was > 100 µM (inactive). For the same molecule, the GI50 [45] was > 100 µM (inactive), the GI50 [46] was > 100 µM (inactive) and the GI50 [47] was > 100 µM (inactive). For the same molecule, the GI50 [58] was > 100 µM (inactive), the GI50 [48] was > 100 µM (inactive) and the GI50 [49] was > 100 µM (inactive). The GI50 [51] was > 100 µM (inactive), the GI50 [52] was 97.7 µM (inactive) and the GI50 [53] was > 100 µM (inactive). For the same molecule, the GI50 [54] was 42.2 µM (inactive) and the GI50 [55] was > 100 µM (inactive).
